Test results as given in patent publication US20260286420A1, “REAGENT, KIT, METHOD FOR DETECTING ADP, AND USE THEREOF” (Neubo Apptech Co., Ltd., priority 2025, published 2026).

Experiment: ATP-removal effect of ATPS and pyrophosphatase, luciferase readout
Assay type: biochemical
Details: 100 μM ATP, 40 min at room temperature
Method: The ATP-removal effect of the reagent in Example 1 was verified.
ATP sulfurylase was prepared in the following buffer: 50 mM Tris-HCl buffer (pH 7.4)+10 mM MgCl2+20 mM Na2MoO4, where the concentration of each component is the final concentration in the resultant solution.
Reagent for ADP detection: 50 mM Tris-HCl buffer (pH 7.4)+20 mM MgSO4+50 mM KCl+2 mM EDTA+2 mM EGTA+0.1 mM D-luciferin+0.1 mM PEP-K (phosphoenolpyruvate monopotassium salt)+50 μg/mL luciferase+20 U/mL a pyruvate kinase, where the concentration of each component is the final concentration in the resultant solution.
The bioluminescence detection instrument was an EnVision (Perkin Elmer).
Next, 25 μL of ATP ([…]) was added to each well of a 96-well white opaque assay plate, followed by the addition of 25 μL of pyrophosphatase (PPA: 10 U/mL) and ATP sulfurylase (ATPS) at concentrations of 2 μg/mL, 1 μg/mL, and 0.5 μg/mL.
After incubation at room temperature (22° C.-25° C.) for 40 minutes, 50 μL of the reagent for ADP detection was added and mixed uniformly, and the fluorescence values were read after incubation was performed at room temperature for 10 minutes.
After 1 μM ATP+0.1 mM D-luciferin+50 μg/mL luciferase+50 mM Tris-HCl buffer (pH 7.4)+20 mM MgSO4 were incubated at room temperature for 10 minutes, the fluorescence value read was 439,640.
After 0.1 μM ATP+0.1 mM D-luciferin+50 μg/mL luciferase+50 mM Tris-HCl buffer (pH 7.4)+20 mM MgSO4 were incubated at room temperature for 10 minutes, the fluorescence value read was 47,720.
The remaining ATP after the action of ATPS and PPA was determined by comparing with the fluorescence values under conditions of ATP at 1 μM and 0.1 μM (see Table 2). It can be seen that the remaining ATP of 100 μM ATP under the action of ATPS (1 μg/mL) and pyrophosphatase was about 0.006%.

- Luminescence (RLU) (ATPS 0.5 μg/mL + PPA 10 U/mL): 3.44E+03 RLU
- Remaining ATP (%) (ATPS 0.5 μg/mL + PPA 10 U/mL): 0.0072%
- Luminescence (RLU) (ATPS 1 μg/mL + PPA 10 U/mL): 2.88E+03 RLU
- Luminescence (RLU) (ATPS 2 μg/mL + PPA 10 U/mL): 2.24E+03 RLU
- Remaining ATP (%) (ATPS 2 μg/mL + PPA 10 U/mL): 0.0047%
Substance: ATPS
